Reference: patent US20260152777A1, “METHOD FOR PRODUCING EPIGALLOCATECHIN GALLATE MONOGLUCOSIDE” (GIVAUDAN SA, priority 2022, published 2026)
Read-outs that look alike come from different tables or passages of the source.

Assays:
[1] = system: human skin explants; experiment: Whitening activity (ex vivo), Fontana-Masson staining for melanin quantification; type: cell-based; conditions: at 2%, topical, 7 days
Description: Fresh human skin explants were obtained from skin phototype III and VI donors, aged of 46±25 years. […] Kojic acid (Sigma-Aldrich) at 2% was topically applied and incubated under the same conditions, serving as positive control. The untreated condition was treated with the vehicle (distilled water). The medium was renewed every other day. After the end of culture, the skin explants were sampled and put in formalin before being dehydrated and embedded in paraffin for Fontana-Masson staining.
Skin explants fixed in formalin were dehydrated and embedded in paraffin. Sections of 4 μm thickness were dewaxed and then stained by Fontana-Masson silver method for melanin.
Images were collected using an Axio Observer Inverted fluorescence microscope (Zeiss) in bright field mode.
Melanin was quantified using two open source optical imaging software programs. Photomicrographs (jpeg format) of Fontana-Masson tissue sections were opened in GIMP-GNU Image Manipulation Program. The brown-black color signals corresponding to melanin grains on stained sections were selected, copied and pasted into a new image and saved as a jpeg file; this jpeg file consists solely of black/brown (melanin grains) on a white background. This image was subsequently opened using the ImageJ program. The image was then inverted and the mean intensity was obtained.

[2] = system: melanogenesis pathway; conditions: 0.01% (v/v), 24 h, NHEK-NHEM co-culture, normalized to B2M
Description: To evaluate the impact of preparation of the present invention on melanogenesis, a co-culture study with keratinocytes and melanocytes was conducted.
The cell culture was realized with primary cells isolated from biopsies. Cells were co-cultured with a ratio of 10 keratinocytes to 1 melanocyte. Both cell types were derived from a donor.
The product EGCG MONOG 0.01% was filtered and diluted in Keratinocyte Growth Medium 2 (supplied by Promocell).
Cells were seeded in 6-well plates in the presence of the Keratinocyte Growth Medium 2 for 24 h. After seeding, a treatment in the presence of EGCG MONOG 0.01% was applied for 24 h. Untreated wells were used as a basal reference in order to compare the impact of EGCG MONOG and gene expression after 24 h of incubation.
After treatment, the RNA from the cells were extracted using TRIzol™ (available from Sigma) and reverse-transcribed into cDNA. The cDNA was mixed with different primers of interest representative of the melanogenesis pathway (PrimePCR custom plate, pigmentation, Biorad). The expression of the mRNA was measured by semi-quantitative PCR on a Bio-Rad CFX96Real Time PCR System (available from BioRAD). The expression level of the mRNA was calculated and normalized with reference gene (B2M).
The values were reported relative to the untreated control to express an activating or inhibitory effect.

[3] = system: spontaneous formation of Advanced Glycation End-products (AGEs); experiment: Anti-glycation in tubo assay (BSA + ribose, fluorescence); type: biochemical; conditions: 17 h at 37° C.; for IC50: BSA + ribose, read-out: IC50 in well (concentration which inhibits AGEs formation by half)
Description: The anti-glycation effect was evaluated using an in tubo assay to measure the spontaneous formation of Advanced Glycation End-products (AGEs). This assay was conducted on a 96-wells microplate. […] The extracts were diluted in sodium phosphate buffer (0.1 M, pH 7.4). Several dilutions were tested. Each diluted extract was run in triplicate. A standard range of aminoguanidine was used as inhibitor reference (positive control). A mixture of the sodium phosphate buffer and BSA was used to validate the experiment and a mixture of sodium phosphate buffer, BSA and ribose was used as the positive control. Two blanks were carried out for the extract: • with phosphate buffer, BSA and extract • with phosphate buffer, ribose and extract The microplate was agitated and incubated for 17 h at 37° C. The fluorescence reading was performed with ? excitation 340 nm and ? emission 420 nm. The anti-glycation activity of the extract was calculated as follows: [formula] FI: Fluorescence of tested extract; blank extract (ribose or BSA); positive control; negative control. Based on the above measurements and calculation, the IC50, i.e. the concentration of the extract which inhibits AGEs formation by half, was calculated.

[4] = system: Lactobacillus acidophilus; conditions: 1%, culture supernatant, NMR, vs untreated
Description: The supernatants of the cultures previously described in Example 10, both of the untreated strain culture and the culture of L. acidophilus treated with 1% EGCG MONOG were kept and frozen at −80° C. before analysis using high-field NMR. For each of these two conditions, three samples were analyzed to assess the tests reproducibility (n=3).
For each sample, 400 μl of supernatant were taken and 100 μl of D2O/TSP (3-(trimethylsilyl)propionic-2,2,3,3-d4 acid sodium salt, internal reference) were added at a concentration of 1 g/l. The samples were analyzed by high field ^1H NMR on a Bruker ASCEND 500 spectrometer operating at a proton frequency of 500 MHz using a 5 mm cryosonde probe. NMR spectra were calibrated to TSP-d4 at 0 ppm using Topspin software version 4.3.0 (Bruker Biospin, Germany). Quantification of metabolites was performed by utilizing the internal standard (TSP-d4) added at a known concentration. Compounds were quantified by the relative ratio of the intensities of their peak integrals and those of the internal standard.

## O=C1O[C@H]([C@@H](O)CO)C(O)=C1O [Ascorbic acid, ascorbic acid]
[1]
  reduction of melanin content compared to untreated: 28%

## O=C(O[C@@H]1Cc2c(O)cc(O)cc2O[C@@H]1c1cc(O)c(O[C@H]2O[C@H](CO)[C@@H](O)[C@H](O)[C@H]2O)c(O)c1)c1cc(O)c(O)c(O)c1 [epigallocatechin gallate 4′-O-α-monoglucoside]
[2]
  AP3B1 mRNA expression vs untreated co-culture: −59%
  DTNBP1 mRNA expression vs untreated co-culture: −59%
  EDNRB mRNA expression vs untreated co-culture: −68%
  F2RL1 mRNA expression vs untreated co-culture: −49%
  KIT mRNA expression vs untreated co-culture: −93%
  LYST mRNA expression vs untreated co-culture: −48%
  MC1R mRNA expression vs untreated co-culture: −96%
  MITF mRNA expression vs untreated co-culture: −108%
  PMEL mRNA expression vs untreated co-culture: −212%
  SOX10 mRNA expression vs untreated co-culture: −60%
  TYR mRNA expression vs untreated co-culture: −58%
[3]; listed as ECGC monoglucoside
  IC50: 133 µM
[3]
  IC50: 118 µM
[3]; tested concentration 0.08 mM
  Inhibition AGE's: 31.01%
[3]; tested concentration 0.4 mM
  Inhibition AGE's: 53.22%
[3]; tested concentration 1 mM
  Inhibition AGE's: 81.54%
[3]; tested concentration 8 mM
  Inhibition AGE's: 109.26%
[4]
  decrease of consumption of sugars by L. acidophilus: 17%
  increase of Trigonelline released by L. acidophilus: up to 65%
  increase of polysorbate consumption by L. acidophilus: 51%
